Columns and labels:
[1] = tested on: SA121 hES and chIPS4 iPS cells; test: Quantitative real-time PCR of PS and DE markers (Brachyury, SOX17) during DE induction; assay type: cell-based, human; settings: for Brachyury (PS) response timing compared to CHIR treatment: Wnt3a (200 ng/ml) or BIO (0.5 μM) 24 h instead of CHIR, upregulated D2
Method: Human embryonic stem (hES) cells SA121 and chIPS4 (Cellartis) were grown on human fibronectin (Sigma) in DEF culture media (Cellartis) with 30 ng/ml bFGF (Invitrogen) and 10 ng/ml Noggin (Peprotech) in 6-96 well plates. Cells were single cell passaged with Rock inhibitor Y-27632 (Calbiochem) and seeded at a density of 40000 cells/cm2 for experiments. Experiments were initiated 4 d after passage.
Confluent cultures were washed once in RPMI1640 (Invitrogen) before 24 hour pre-treatment with 0,5-7μM CHIR99021 (Stemgent) in RPMI. Control cells were left untreated in RPMI and D'Amour cells were either left in RPMI or treated with AA (Peprotech)+Wnt3a (R&D Systems) without pre-treatment depending on experimental setup.
After 24 hours, pretreated and control cells were washed once with RPMI before adding 100 ng/ml AA in RPMI. D'Amour cells were also treated with 100 ng/ml AA but with 0,2% FBS instead of B27. 24 h later, 2% B27 (Invitrogen) was added to the AA media for 2-3 d. Control cells were treated with B27 to prevent cell death and D'Amour cells with 2% FBS according to published protocol. Media was changed every day.
RNA samples were collected after 24 h pre-treatment (D1), after 1 day of AA treatment (D2) and after 1-2 d of AA+B27 treatment (D3-4). Total RNA was extracted with the Rneasy Plus Mini kit (Qiagen) and quantitative real-time PCR was performed using the StepOnePLus system (Applied Biosystems).
Undifferentiated SA121 hES and chIPS4 iPS cells in DEF media (DO) were cultured either in RPMI without CHIR (Ctrl D1) or treated for 24 h with CHIR in RPMI (CHIR D1). The cells were then washed to ensure absence of CHIR and then both conditions were treated with 1 d AA (Ctrl and CHIR d2). […] T fold inductions after 24 h CHIR treatment spanned between 500-100000 compared to undifferentiated cells (d0). T protein levels were also confirmed with ICC (FIG. 2C).
The efficiency levels for both T and SOX17 were highly robust (n>60) and confirmed with IHC and SOX17 quantifications (FIG. 2C and Table 2.). […] SOX17 expression peaked already after one day of AA treatment when cells were subjected to CHIR for 24 h before AA induction.
(§1) hES SA121 and ChIPS4 cells were treated with either CHIR (3 μM), BIO (0.5 μM), Wnt3a (200 ng/ml) or AA alone (100 ng/ml) for 24 h prior to AA addition to show CHIR specificity (d1). Additionally, D'Amour (protocol as described in Kroon et al 2008) was tested in parallel.
Chir was titrated at concentrations between 1-7 uM and analyzed after 24 h Chir treatment (D1) and after 2 d of following AA treatment (D3).

[2] = tested on: hES SA121 cells; test: CHIR specificity: cell survival after 24 h pre-treatment prior to AA addition; assay type: cell-based, human; settings: 24 h pre-treatment with BIO (0.5 μM) or AA alone (100 ng/ml), then AA
Method: as §1
The data clearly illustrated that PS transition (upregulation of Brachyury) and DE induction (upregulation of SOX17) were both accelerated and much higher after CHIR treatment compared to pretreatment with growth factors such as AA and Wnt3a.

AA: Activin A, growth factor used for definitive endoderm induction
time of SOX17 induction peak after AA ([1]; CHIR-priming step 24 h then AA, versus AA alone): 3 to 4 days | cell survival until day 3 [2]: did not survive until day 3

O=C1Nc2cc(Br)ccc2/C1=C1/Nc2ccccc2/C1=N\O [BIO]
Brachyury (PS) response timing compared to CHIR treatment [1]: delayed | cell survival until day 3 [2]: did not survive until day 3

B1: Wnt3a: the Wnt receptor ligand Wnt3a (protein, UniProt P56704 19-352, looked up)
Protein Wnt-3a: SYPIWWSLAVGPQYSSLGSQPILCASIPGLVPKQLRFCRNYVEIMPSVAEGIKIGIQECQHQFRGRRWNCTTVHDSLAIFGPVLDKATRESAFVHAIASAGVAFAVTRSCAEGTAAICGCSSRHQGSPGKGWKWGGCSEDIEFGGMVSREFADARENRPDARSAMNRHNNEAGRQAIASHMHLKCKCHGLSGSCEVKTCWWSQPDFRAIGDFLKDKYDSASEMVVEKHRESRGWVETLRPRYTYFKVPTERDLVYYEASPNFCEPNPETGSFGTRDRTCNVSSHGIDGCDLLCCGRGHNARAERRREKCRCVFHWCCYVSCQECTRVYDVHTCK
Brachyury (PS) response timing compared to CHIR treatment [1]: delayed
